Measurements reported in patent US20260256921A1, “BIFUNCTIONAL MOLECULES TO TARGET DEGRADATION OF TUMOR NECROSIS FACTOR” (Biohaven Therapeutics Ltd., priority 2023, published 2026).
pIC50, pKd: −log10 of the molar value.

Experiments:
human TNF-α [1] = target: T1, human TNF-α (Homo sapiens, UniProt P01375); assay: TNF-α thermal melt assay; type: binding; design: Amino acids 77-233 of Human TNF-α protein with an N-terminal GST tag; GST (N, cleaved yes); made in house; host or cells: Escherichia coli (BL21 NiCo); details: thermal melt, SYPRO Orange, Kd calculated as in Matulis et al.; read-out: TM Kd
Experimental: Protein was purified using glutathione agarose purification columns (Pierce™, Waltham, MA, USA). Following purification, the GST tag was removed using HRV3c protease (Pierce™, Waltham, MA, USA) and the GST tag and the TNF-α were separated via ion exchange chromatography using a 20 mM HEPES pH 8.0 buffer system ramping from 0 to 1 M NaCl over 12 column volumes with 5 ml of Q Sepharose (HiScreen Q HP, Cytiva™, Marlborough, MA, USA). The final protein includes the amino acids GPLGSG at the N-terminus of the protein.
Protein was heated from 20° C. to 95° C. at one degree per minute in a Roche Opus384 qPCR machine.
Target sequence in this assay (P01375 77-233): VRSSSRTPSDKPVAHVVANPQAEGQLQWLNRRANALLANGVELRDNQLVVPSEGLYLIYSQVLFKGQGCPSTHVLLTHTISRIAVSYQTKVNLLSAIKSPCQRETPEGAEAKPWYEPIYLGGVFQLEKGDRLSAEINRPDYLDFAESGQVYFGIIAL

[2] = target: T2, Biotinylated Human TNF-α Protein (active trimer) (Homo sapiens, UniProt P01375); assay: Octet (BLI) binding to TNF-α; details: 1:1 binding model, N.B. = No Binding
T2 construct: purchased ACROBiosystems TNA-H82E3
Experimental: Protocol. The binding to IL-17A was measured by Bio-Layer Interferometry (BLI) using the Sartorius Octet 96e platform (Goettingen, Germany). The binding assay was performed using Streptavidin (SA) Dip and Read Biosensors (Sartorius Catalog #18-5019; Goettingen, Germany) in OptiPlate-96F, Black, 96-well, Pinch bar design, plates (Perkin Elmer Catalog #6005270; Waltham, MA, USA) with the following steps: (1) 60 seconds of baseline; (2) 600 seconds of loading with 50 nM TNF-α (Biotinylated Human TNF-α Protein, His, Avitag (active trimer); ACROBiosystems Catalog #TNA-H82E3; Newark, DE, USA); (3) 60 seconds of baseline; (4) 120 seconds of quenching with 50 μg/ml of Biocytin (Thermo Fisher Catalog #B1592; Waltham, MA, USA); (5) 60 seconds of baseline; (6) 180 seconds of association with a dilution series of ligand consisting of seven concentrations. The eighth tip in the column was run in Assay Buffer (Phosphate Buffered Saline (PBS; Gibco Catalog #10010; Pottstown, PA, USA)+0.05% Tween 20 (v/v) (Fisher BioReagents Catalog BP337-500; Pittsburgh, PA, USA)+0.1% BSA (w/v) (Rockland Catalog #BSA-50; Pottstown, PA, USA)) to serve as a reference sensor, the signal of which was subtracted from the sample sensors. (7) 180 seconds of dissociation in Assay Buffer.
Results. Data analysis was done using the Octet Data Analysis HT software (Sartorius, Goettingen, Germany). Processed data was globally fit to a 1:1 binding model for determination of the equilibrium dissociation constant (KD).

human TNF-α [3] = target: T1, human TNF-α; assay: TNF-α functional assay (hHEK-TNF-α SEAP reporter cells); type: cell-based; design: purchased ACROBiosystems TNA-H4211; details: hHEK-TNF-α cells, SEAP readout, TNF-α added at EC80 (1.034 pM), 18-24 hours; read-out: TNF-α Function IC50
Description: Human HEK TNF-αcells (hHEK-TNF-α cells; InvivoGen Catalog #hkb-tnfdmyd; San Diego, CA, USA) are human embryonic kidney HEK293 cells that are stably transfected with the reporter gene, secreted alkaline phosphatase (SEAP). The hHEK-TNF-α cells allow for the detection of bioactive human and murine TNF-α via the activation of the NF-kB-inducible promoter and subsequent production of SEAP. Bioactivity of commercial human TNF-α protein (ActiveMax® Human TNF-α Protein, Tag Free, Low Endotoxin; available by ACROBiosystems Catalog #TNA-H4211; Newark, DE, USA) was determined in this reporter system.
Test molecules were dissolved in 100% DMSO and serially diluted by either 3-fold serial dilution or 4-fold serial dilution. […] TNF-α protein was added at the previously determined ECso. Plates containing cells, test molecules, and cytokine were incubated overnight for 18-24 hours at 37° C., 5% CO2.
The level of SEAP in the supernatant of each well was quantified using the Quanti Blue™ Solution (InvivoGen Catalog #rep-qba2; San Diego, CA, USA), a reagent with a colorimetric change in the presence of SEAP. To perform the Quanti-Blue assay: 20 L of the sample supernatant after the overnight 18-24 hour incubation was added to 180 L of Quanti Blue™ Reagent and incubated for 45 minutes at 37° C. […] Inhibition of TNF-α signaling was calculated utilizing GraphPad Prism (San Diego, CA, USA).
Target sequence in this assay (P01375 77-233 limits assumed): as the sequence (P01375 77-233) above

T2 sequence (P01375 77-233 limits assumed): as the sequence (P01375 77-233) above

SMILES | pKd (human TNF-α [1]) | Octet Kd TNF-α [2] | pIC50 (human TNF-α [3])
CCC(=O)N[C@H]1CO[C@H](COCCOCCOCCOCCn2cc(COCCNC(=O)CNC(=O)CCC(=O)N3CCN(Cc4ccc(-c5c[nH]c6ccncc56)c(OCCc5ccc(-c6cccc7ccncc67)cc5)c4)CC3)nn2)[C@H](O)[C@@H]1O [Compound 106] | 7.30 | N.B. | 6.45
CCC(=O)NC1COC(COCCOCCOCCOCCn2cc(COCC(COCc3cn(CCOCCOCCOCCOCC4OCC(NC(=O)CC)C(O)C4O)nn3)(COCc3cn(CCOCCOCCOCCOCC4OCC(NC(=O)CC)C(O)C4O)nn3)NC(=O)CNC(=O)CCOCCOCCC(=O)N3CCN(Cc4ccc(-c5c[nH]c6ccncc56)c(OCCc5ccc(-c6cccc7ccncc67)cc5)c4)CC3)nn2)C(O)C1O (stereo not drawn) [Compound 103] | 6.00 | N.B. | < 2.00
CCC(=O)NC1COC(COCCOCCOCCOCCn2cc(COCCNC(=O)CNC(=O)CCOCCOCCOCCOCCOCCOCCC(=O)N3CCN(Cc4ccc(-c5c[nH]c6ccncc56)c(OCCc5ccc(-c6cccc7ccncc67)cc5)c4)CC3)nn2)C(O)C1O (stereo not drawn) [Compound 105] | 7.19 | N.B. | 6.48
CCC(=O)NC1COC(COCCOCCOCCOCCn2cc(COCC(COCc3cn(CCOCCOCCOCCOCC4OCC(NC(=O)CC)C(O)C4O)nn3)(COCc3cn(CCOCCOCCOCCOCC4OCC(NC(=O)CC)C(O)C4O)nn3)NC(=O)CNC(=O)CCC(=O)N3CCN(Cc4ccc(-c5c[nH]c6ccncc56)c(OCCc5ccc(-c6cccc7ccncc67)cc5)c4)CC3)nn2)C(O)C1O (stereo not drawn) [Compound 104] | 6.00 | N.B. | 6.00
CCC(=O)N[C@H]1CO[C@H](COCCOCCOCCOCCn2cc(COCCNC(=O)CNC(=O)CCOCCOCCC(=O)N3CCN(Cc4ccc(-c5c[nH]c6ccncc56)c(OCCc5ccc(-c6cccc7ccncc67)cc5)c4)CC3)nn2)[C@H](O)[C@@H]1O [Compound 107] | 7.26 | N.B. | 6.50
